According to ChEMBL document CHEMBL3045112, “In vitro antimicrobial assessment of coumarin-based s-triazinyl piperazines” (2012):
≈ marks a conversion by molar mass, not a printed value.

Legend:
Format in all cases: functional
Bacillus subtilis [1] = experiment: Antibacterial activity against Bacillus subtilis after 24 hr by disk diffusion test
Staphylococcus aureus [2] = experiment: Antibacterial activity against Staphylococcus aureus after 24 hr by disk diffusion test
Aspergillus niger [3] = experiment: Antifungal activity against Aspergillus niger after 48 hr by agar plate method
Candida albicans [4] = experiment: Antifungal activity against Candida albicans after 48 hr by agar plate method
Escherichia coli [5] = experiment: Antibacterial activity against Escherichia coli after 24 hr by agar plate method
Pseudomonas aeruginosa [6] = experiment: Antibacterial activity against Pseudomonas aeruginosa after 24 hr by agar plate method
Bacillus subtilis [7] = experiment: Antibacterial activity against Bacillus subtilis after 24 hr by agar plate method
Staphylococcus aureus [8] = experiment: Antibacterial activity against Staphylococcus aureus after 24 hr by agar plate method
Aspergillus niger [9] = experiment: Antifungal activity against Aspergillus niger after 48 hr by disk diffusion test
Pseudomonas aeruginosa [10] = experiment: Antibacterial activity against Pseudomonas aeruginosa after 24 hr by disk diffusion test
Candida albicans [11] = experiment: Antifungal activity against Candida albicans after 48 hr by disk diffusion test
Escherichia coli [12] = experiment: Antibacterial activity against Escherichia coli after 24 hr by disk diffusion test

| SMILES | inhibition zone (IZ) (Bacillus subtilis [1]) | inhibition zone (IZ) (Staphylococcus aureus [2]) | MIC (Aspergillus niger [3]) | MIC (Candida albicans [4]) | MIC (Escherichia coli [5]) | MIC (Pseudomonas aeruginosa [6]) | MIC (Bacillus subtilis [7]) | MIC (Staphylococcus aureus [8]) | inhibition zone (IZ) (Aspergillus niger [9]) | inhibition zone (IZ) (Pseudomonas aeruginosa [10]) | inhibition zone (IZ) (Candida albicans [11]) | inhibition zone (IZ) (Escherichia coli [12]) |
| --- | --- | --- | --- | --- | --- | --- | --- | --- | --- | --- | --- | --- |
| O=c1cc(Oc2nc(Nc3ccccc3)nc(N3CCN(c4ccccc4)CC3)n2)c2ccccc2o1 | 17 mm | 17 mm | 100 µg/mL (≈ 203 µM) | 100 µg/mL (≈ 203 µM) | 100 µg/mL (≈ 203 µM) | 100 µg/mL (≈ 203 µM) | 100 µg/mL (≈ 203 µM) | 100 µg/mL (≈ 203 µM) | 15 mm | 15 mm | 16 mm | 16 mm |
| CC(=O)N1CCN(c2nc(Nc3ccccc3)nc(Oc3cc(=O)oc4ccccc34)n2)CC1 | 20 mm | 23 mm | 100 µg/mL (≈ 218 µM) | 50 µg/mL (≈ 109 µM) | 12.5 µg/mL (≈ 27.3 µM) | 50 µg/mL (≈ 109 µM) | 100 µg/mL (≈ 218 µM) | 25 µg/mL (≈ 54.5 µM) | 18 mm | 22 mm | 20 mm | 22 mm |
| CC(C)N1CCN(c2nc(Nc3ccccc3)nc(Oc3cc(=O)oc4ccccc34)n2)CC1 | 18 mm | 20 mm | 25 µg/mL (≈ 54.5 µM) | 100 µg/mL (≈ 218 µM) | 100 µg/mL (≈ 218 µM) | 100 µg/mL (≈ 218 µM) | 50 µg/mL (≈ 109 µM) | 100 µg/mL (≈ 218 µM) | 21 mm | 18 mm | 17 mm | 18 mm |
| O=c1cc(Oc2nc(Nc3ccccc3)nc(N3CCN(c4ccccn4)CC3)n2)c2ccccc2o1 | 21 mm | 23 mm | 12.5 µg/mL (≈ 25.3 µM) | 25 µg/mL (≈ 50.7 µM) | 25 µg/mL (≈ 50.7 µM) | 50 µg/mL (≈ 101 µM) | 25 µg/mL (≈ 50.7 µM) | 12.5 µg/mL (≈ 25.3 µM) | 20 mm | 20 mm | 21 mm | 20 mm |
| O=c1cc(Oc2nc(Nc3ccccc3)nc(N3CCN(c4ncccn4)CC3)n2)c2ccccc2o1 | 22 mm | 23 mm | 12.5 µg/mL (≈ 25.3 µM) | 12.5 µg/mL (≈ 25.3 µM) | 50 µg/mL (≈ 101 µM) | 50 µg/mL (≈ 101 µM) | 12.5 µg/mL (≈ 25.3 µM) | 12.5 µg/mL (≈ 25.3 µM) | 19 mm | 20 mm | 22 mm | 21 mm |
| Cc1cc(=O)oc2cc(Oc3nc(Nc4ccccc4)nc(N4CCN(C)CC4)n3)ccc12 | 21 mm | 19 mm | 100 µg/mL (≈ 225 µM) | 100 µg/mL (≈ 225 µM) | 100 µg/mL (≈ 225 µM) | 100 µg/mL (≈ 225 µM) | 100 µg/mL (≈ 225 µM) | 100 µg/mL (≈ 225 µM) | 16 mm | 20 mm | 20 mm | 16 mm |
| CCN1CCN(c2nc(Nc3ccccc3)nc(Oc3ccc4c(C)cc(=O)oc4c3)n2)CC1 | 21 mm | 17 mm | 100 µg/mL (≈ 218 µM) | 100 µg/mL (≈ 218 µM) | 100 µg/mL (≈ 218 µM) | 100 µg/mL (≈ 218 µM) | 50 µg/mL (≈ 109 µM) | 100 µg/mL (≈ 218 µM) | 20 mm | 21 mm | 20 mm | 16 mm |
| Cc1cc(=O)oc2cc(Oc3nc(Nc4ccccc4)nc(N4CCN(c5cccc(Cl)c5)CC4)n3)ccc12 | 23 mm | 22 mm | 25 µg/mL (≈ 46.2 µM) | 12.5 µg/mL (≈ 23.1 µM) | 25 µg/mL (≈ 46.2 µM) | 12.5 µg/mL (≈ 23.1 µM) | 50 µg/mL (≈ 92.4 µM) | 25 µg/mL (≈ 46.2 µM) | 23 mm | 24 mm | 25 mm | 22 mm |
| Cc1cc(=O)oc2cc(Oc3nc(Nc4ccccc4)nc(N4CCN(c5cccc(Cl)c5Cl)CC4)n3)ccc12 | 25 mm | 24 mm | 12.5 µg/mL (≈ 21.7 µM) | 12.5 µg/mL (≈ 21.7 µM) | 12.5 µg/mL (≈ 21.7 µM) | 12.5 µg/mL (≈ 21.7 µM) | 12.5 µg/mL (≈ 21.7 µM) | 25 µg/mL (≈ 43.4 µM) | 23 mm | 24 mm | 25 mm | 23 mm |
| Cc1cc(=O)oc2cc(Oc3nc(Nc4ccccc4)nc(N4CCCCC4)n3)ccc12 | 19 mm | 21 mm | 12.5 µg/mL (≈ 29.1 µM) | 50 µg/mL (≈ 116 µM) | 25 µg/mL (≈ 58.2 µM) | 100 µg/mL (≈ 233 µM) | 100 µg/mL (≈ 233 µM) | 50 µg/mL (≈ 116 µM) | 22 mm | 21 mm | 22 mm | 22 mm |
| Cc1cc(=O)oc2cc(Oc3nc(Nc4ccccc4)nc(N4CCOCC4)n3)ccc12 | 20 mm | 20 mm | 50 µg/mL (≈ 116 µM) | 50 µg/mL (≈ 116 µM) | 50 µg/mL (≈ 116 µM) | 100 µg/mL (≈ 232 µM) | 100 µg/mL (≈ 232 µM) | 100 µg/mL (≈ 232 µM) | 21 mm | 17 mm | 22 mm | 22 mm |
| Cc1cc(=O)oc2cc(Oc3nc(Nc4ccccc4)nc(N4CCN(c5ccccc5)CC4)n3)ccc12 | 20 mm | 17 mm | 100 µg/mL (≈ 197 µM) | 100 µg/mL (≈ 197 µM) | 100 µg/mL (≈ 197 µM) | 100 µg/mL (≈ 197 µM) | 100 µg/mL (≈ 197 µM) | 100 µg/mL (≈ 197 µM) | 17 mm | 15 mm | 18 mm | 17 mm |
| CC(=O)N1CCN(c2nc(Nc3ccccc3)nc(Oc3ccc4c(C)cc(=O)oc4c3)n2)CC1 | 23 mm | 22 mm | 50 µg/mL (≈ 106 µM) | 25 µg/mL (≈ 52.9 µM) | 12.5 µg/mL (≈ 26.5 µM) | 25 µg/mL (≈ 52.9 µM) | 50 µg/mL (≈ 106 µM) | 25 µg/mL (≈ 52.9 µM) | 21 mm | 23 mm | 25 mm | 23 mm |
| Cc1cc(=O)oc2cc(Oc3nc(Nc4ccccc4)nc(N4CCN(C(C)C)CC4)n3)ccc12 | 18 mm | 19 mm | 100 µg/mL (≈ 212 µM) | 100 µg/mL (≈ 212 µM) | 100 µg/mL (≈ 212 µM) | 100 µg/mL (≈ 212 µM) | 100 µg/mL (≈ 212 µM) | 100 µg/mL (≈ 212 µM) | 19 mm | 18 mm | 19 mm | 18 mm |
| Cc1cc(=O)oc2cc(Oc3nc(Nc4ccccc4)nc(N4CCN(c5ccccn5)CC4)n3)ccc12 | 24 mm | 23 mm | 12.5 µg/mL (≈ 24.6 µM) | 25 µg/mL (≈ 49.3 µM) | 25 µg/mL (≈ 49.3 µM) | 50 µg/mL (≈ 98.5 µM) | 12.5 µg/mL (≈ 24.6 µM) | 12.5 µg/mL (≈ 24.6 µM) | 23 mm | 22 mm | 23 mm | 22 mm |
| Cc1cc(=O)oc2cc(Oc3nc(Nc4ccccc4)nc(N4CCN(c5ncccn5)CC4)n3)ccc12 | 24 mm | 24 mm | 25 µg/mL (≈ 49.2 µM) | 25 µg/mL (≈ 49.2 µM) | 25 µg/mL (≈ 49.2 µM) | 50 µg/mL (≈ 98.3 µM) | 12.5 µg/mL (≈ 24.6 µM) | 6.25 µg/mL (≈ 12.3 µM) | 22 mm | 23 mm | 24 mm | 21 mm |
